According to patent US20240270692A1, “S(+) FORM OF 4-(2,4-DIFLUOROPHENYL)-2-(1H-INDOL-3-YL)-4-OXO-BUTANOIC ACID” (TOHOKU UNIVERSITY, priority 2021, published 2024):

Tests used:
MT-ND3 mutant cell line [1] = assay: Evaluation of ability to produce ATP in animal cells; assay type: cell-based, human; details: 0.1 μM or 1 μM, cultured 6 hours, S(+) form versus R(−) form
Method: (§1) Hereinafter, the present invention will be described more specifically with reference to Examples, but the technical scope of the present invention is not limited to these Examples. The INS-1E cell line was cultured in an incubator (37° C., 21% O2, 5% CO2) in the presence of RPMI-1640 Medium (manufactured by GIBCO) containing 11.1 mM glucose, 10% FBS, 1 mM sodium pyruvate, 10 mM HEPES, 2 mM glutamine, 50 μM β-mercaptoethanol, penicillin at 100 U/mL, and streptomycin at 100 μg/mL (hereinafter simply referred to as “RPMI-1640 Medium”). […]
An MT-ND3 mutant cell line was seeded in a 96-well plate at 2×10^3 cells per well and cultured for 24 hours in the presence of DMEM Low Glucose culture medium, then 0.1% DMSO, which is a solvent for the compounds, or various concentrations (0.1 μM or 1 μM) of three compounds (racemic form of MA5, S(+) form of MA5, or R(−) form of MA5) were added, and the cells were cultured for 6 hours, and then the concentration of ATP produced in the culture medium was measured with GloMa 96 Microplate Luminometer (Promega Corporation) by using a “cellular” ATP measurement reagent (manufactured by TOYO B-Net Co., Ltd.).

HBlEpC cell line = assay: Cytotoxicity evaluation 1: viable cell level by WST-8 assay; assay type: cell-based, human; details: 30 nM to 1 mM, cultured 48 hours
Method: as §1
An HBlEpC cell line (manufactured by Cell Application) was seeded in a 96-well plate at 2×10^3 cells per well, 0.1% DMSO, which is a solvent for the compounds, or various concentrations (30 NM, 100 nM, 300 nM, 1 μM, 3 μM, 10 μM, 30 μM, 100 μM, 300 μM, or 1 mM) of three compounds (racemic form of MA5, S(+) form of MA5, or R(−) form of MA5) were added to the HBlEpC culture medium, and the cells were cultured for 48 hours. […] The viable cell level (viable cell count level) after culture was measured by a WST-8 assay using Cell Count Reagent SF (manufactured by Nacalai Tesque, Inc.).

immt-1/mitofilin mutant = assay: Evaluation of mitochondrial function: mitochondrial swelling in body wall muscle cells; assay type: in vivo, C. elegans; details: immt-1/mitofilin mutants, 10 μM, raised 5 days from L4 larval stage, compared with control DMSO
Method: It has been reported that in immt-1-deficient mutant C. elegans (hereinafter referred to as “immt-1/mitofilin mutant”), which is a C. elegans ortholog of the mitochondrial inner membrane protein (Mitofilin), mitochondria in muscle cells swell (see the literature “Journal of Cellular Physiology. 224 (2010) 748-756” and the literature “Molecular Biology of the Cell. 22 (2011) 831-841.”). Therefore, when three compounds (racemic form of MA5, S(+) form of MA5, or R(−) form of MA5) were administered to immt-1/mitofilin mutants, whether or not mitochondrial swelling was alleviated was analyzed.
As a comparative control, ccIs4251 wild-type C. elegans (obtained from CGC [Caenorhabditis Genetics Center]) was raised on a culture plate and analyzed in the same manner.

MT-ND3 mutant cell line [2] = assay: Cytotoxicity evaluation 2: cell survival level by MTT assay (Cell Counting Kit-8); assay type: cell-based, human; details: high concentrations (30 μM and 100 μM), cultured 5 days
Method: as §1
An MT-ND3 mutant cell line was seeded in a 96-well plate at 2×10^3 cells per well and cultured for 2 days in the presence of DMEM Low Glucose culture medium, then 0.1% DMSO, which is a solvent for the compounds, or various concentrations (0.003 μM, 0.01 μM, 0.03 μM, […], 0.3 μM, 1 μM, 3 μM, 10 μM, 30 μM, or 100 μM) of each enantiomer (S(+) form or R(−) form) of MA5 was added, the cells were further cultured for 5 days, and then the cell survival level was measured. Specifically, the cell survival level was measured by an MTT assay using Cell Counting Kit-8 (manufactured by Dojindo Laboratories). That is, 100 μL of Cell Count Reagent SF was added to each well, incubated for 2 hours, and stirred for 3 seconds with a microplate reader, and the absorbance at 450 nm (reference: 750 nm) was measured (see FIG. 4). […]

[3] = target: T1, nicotinamide phosphoribosyltransferase (Nampt) (Homo sapiens, UniProt P43490); assay: Nampt binding test (Octet K2); details: for binding to Nampt: Octet K2, biotin Nampt
T1 construct: biotin (biotinylated protein)
T1 sequence (P43490 whole entry, species assumed): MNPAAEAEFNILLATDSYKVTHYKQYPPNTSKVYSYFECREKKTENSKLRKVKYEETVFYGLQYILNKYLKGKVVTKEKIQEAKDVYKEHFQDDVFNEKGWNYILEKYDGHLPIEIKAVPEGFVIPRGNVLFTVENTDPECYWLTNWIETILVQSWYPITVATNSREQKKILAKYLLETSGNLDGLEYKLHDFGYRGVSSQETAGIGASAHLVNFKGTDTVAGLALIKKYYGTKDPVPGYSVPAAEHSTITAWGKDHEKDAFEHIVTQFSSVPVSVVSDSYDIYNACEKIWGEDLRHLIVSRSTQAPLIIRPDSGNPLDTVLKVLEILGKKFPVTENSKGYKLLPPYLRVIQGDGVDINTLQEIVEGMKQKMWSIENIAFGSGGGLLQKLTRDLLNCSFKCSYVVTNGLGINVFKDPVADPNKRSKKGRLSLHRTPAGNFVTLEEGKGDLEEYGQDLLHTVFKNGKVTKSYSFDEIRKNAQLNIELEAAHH
Method: The binding of the S(+) form of MA5 and the R(−) form of MA5 to nicotinamide phosphoribosyltransferase (Nampt), which is a key enzyme of the mammalian NAD^+ synthesis system, was measured by using Octet K2.
A 0.01% DDM PBS solution was prepared as a measurement buffer. 1 μL of biotin Nampt was added to 1000 μL of the measurement buffer. This was diluted 2-fold to obtain a 0.4 ng/μL ligand solution. A DMSO solution of a 100 mM MA5 S(+) form was diluted from 300 µM to 1000 μM, a DMSO solution of a 100 mM MA5 R(−) form was diluted from 500 μM to 1200 μM, and the diluted solutions were each used as an analyte solution. 200 μL each of the measurement buffer, a 1 μM biotin solution, a ligand solution, a 100 μM biocytin solution, and the analyte solution were added to a 96-well plate, and the plate was set in Octet K2 to carry out the measurement. Data were analyzed by using the accompanying software. Kd values were represented graphically with Prism 9 by using the concentrations of the analyte solution and the numerical values of Req (nm) calculated by the analysis.

Row | SMILES | level of ATP production (MT-ND3 mutant cell line [1]) | viability of the cells (viable cell level, OD450) (HBlEpC cell line) | number of swelling mitochondria per body wall muscle cell (immt-1/mitofilin mutant) | proportion of body wall muscle cells in which 5 or more swelling mitochondria per body wall muscle cell were observed (immt-1/mitofilin mutant) | viable cell level (MT-ND3 mutant cell line [2]) | binding to Nampt [3] | binding to Nampt ([3]; listed as R(−) form) | Kd ([3]; NAMPT, Octet K2) [µM]
1 | O=C(C[C@@H](C(=O)O)c1c[nH]c2ccccc12)c1ccc(F)cc1F [R(−) form of MA5, 4-(2,4-difluorophenyl)-2-(1H-indol-3-yl)-4-oxo-butanoic acid] | No difference was observed | the viability of the cells was higher than when the HBlEpC cell line was cultured in the presence of the racemic form of MA5 | remained almost unchanged or only slightly decreased | remained almost unchanged or only slightly decreased | a significant decrease in viable cell level was observed | did not bind to NAMPT | does not bind to Nampt | –
2 | O=C(C[C@H](C(=O)O)c1c[nH]c2ccccc12)c1ccc(F)cc1F [S(+) form of MA5, 4-(2,4-difluorophenyl)-2-(1H-indol-3-yl)-4-oxo-butanoic acid] | No difference was observed | the viability of the cells was higher with the S(+) form of MA5 than with the R(−) form of MA5 | greatly decreased | greatly decreased | no decrease in viable cell level was observed | binds to Nampt | – | 58.9
